According to the supplement of paper PMC10307832:

How the values were obtained:
Assay in all cases: relative viability (nuclei count vs DMSO), 5 days (fraction); higher = more cells survive
Motesanib + OSI-027 = compound: CC1(C)CNc2cc(NC(=O)c3cccnc3NCc3ccncc3)ccc21 [Motesanib] + COc1cccc2cc(-c3nc([C@H]4CC[C@H](C(=O)O)CC4)n4ncnc(N)c34)[nH]c12 [OSI-027] (partner 0.5 µM)
How it was run: (§1)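 Medians of duplicate plates are given as relative viability. That measure is the nuclei count in treated wells divided by the count in vehicle wells. Counts were taken on 4× images of lung cancer cell lines in 1536-well plates, 5 days after pin-tool dosing the day after seeding with one drug alone or a fixed anchor-drug dose plus five library-drug doses (not always all listed) in √10 steps.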

Motesanib + Crizotinib = compound: CC1(C)CNc2cc(NC(=O)c3cccnc3NCc3ccncc3)ccc21 [Motesanib] + C[C@@H](Oc1cc(-c2cnn(C3CCNCC3)c2)cnc1N)c1c(Cl)ccc(F)c1Cl [Crizotinib] (partner 1 µM)
How it was run: as §1

Motesanib + Decitabine = compound: CC1(C)CNc2cc(NC(=O)c3cccnc3NCc3ccncc3)ccc21 [Motesanib] + Nc1ncn([C@H]2C[C@H](O)[C@@H](CO)O2)c(=O)n1 [Decitabine] (partner 2 µM)
How it was run: as §1

[1] = compound: C[C@@]1(C(=O)Nc2ccc(F)nc2)CCCN1c1nc(Nc2cc(C3CC3)n[nH]2)c2cccn2n1 + COc1cccc2cc(-c3nc([C@H]4CC[C@H](C(=O)O)CC4)n4ncnc(N)c34)[nH]c12 [OSI-027] (partner 0.5 µM)
How it was run: as §1

| Cell Line | relative viability (Motesanib + OSI-027; first compound 0.01 µM) | relative viability (Motesanib + OSI-027; first compound 0.03162 µM) | relative viability (Motesanib + OSI-027; first compound 0.1 µM) | relative viability (Motesanib + OSI-027; first compound 0.3162 µM) | relative viability (Motesanib + OSI-027; first compound 1 µM) | relative viability (Motesanib + Crizotinib; first compound 0.01 µM) | relative viability (Motesanib + Crizotinib; first compound 0.03162 µM) | relative viability (Motesanib + Crizotinib; first compound 0.1 µM) | relative viability (Motesanib + Crizotinib; first compound 0.3162 µM) | relative viability (Motesanib + Crizotinib; first compound 1 µM) | relative viability (Motesanib + Decitabine; first compound 0.01 µM) | relative viability (Motesanib + Decitabine; first compound 0.03162 µM) | relative viability (Motesanib + Decitabine; first compound 0.1 µM) | relative viability (Motesanib + Decitabine; first compound 0.3162 µM) | relative viability (Motesanib + Decitabine; first compound 1 µM) | relative viability ([1]; first compound 0.04 µM) | relative viability ([1]; first compound 0.1265 µM) | relative viability ([1]; first compound 0.4 µM) | relative viability ([1]; first compound 1.265 µM) |
| --- | --- | --- | --- | --- | --- | --- | --- | --- | --- | --- | --- | --- | --- | --- | --- | --- | --- | --- | --- |
| A-427 | 0.4 | 0.459 | 0.485 | 0.545 | 0.5 | 0.933 | 0.892 | 0.983 | 0.888 | 1.04 | 0.563 | 0.554 | 0.544 | 0.568 | 0.556 | 0.442 | 0.275 | 0.366 | 0.261 |
| NCI-H2347 | 0.411 | 0.364 | 0.357 | 0.51 | 0.493 | 0.783 | 0.691 | 0.715 | 0.745 | 0.631 | 0.667 | 0.578 | 0.701 | 0.642 | 0.674 | 0.33 | 0.287 | 0.244 | 0.342 |
| NCI-H1355 | 0.411 | 0.424 | 0.39 | 0.414 | 0.431 | 1.12 | 1.14 | 0.994 | 1.07 | 1.05 | 0.4 | 0.413 | 0.395 | 0.415 | 0.495 | 0.272 | 0.236 | 0.21 | 0.251 |
| NCI-H358 | 0.9 | 0.802 | 0.767 | 0.906 | 0.716 | 0.578 | 0.346 | 0.763 | 0.586 | 0.596 | 0.197 | 0.261 | 0.257 | 0.314 | 0.276 | 0.415 | 0.179 | 0.15 | 0.138 |
| PC-3 [JPC-3] | 0.8 | 0.737 | 0.784 | 0.759 | 0.86 | 0.997 | 1.03 | 1.02 | 1.01 | 1.01 | 0.803 | 0.836 | 0.858 | 0.897 | 1.01 | 0.688 | 0.59 | 0.485 | 0.621 |
| NCI-H2228 | 0.572 | 0.455 | 0.489 | 0.689 | 0.572 | 0.386 | 0.424 | 0.619 | 0.431 | 0.571 |  |  |  |  |  | 0.495 | 0.187 | 0.227 | 0.229 |
| HOP-62 | 0.843 | 0.912 | 0.839 | 0.92 | 0.815 | 0.899 | 0.82 | 0.859 | 1.05 | 0.932 | 0.179 | 0.233 | 0.573 | 0.608 | 0.774 | 0.758 | 0.574 | 0.641 | 0.657 |
| HARA | 0.439 | 0.724 | 0.527 | 0.554 | 0.557 | 1.1 | 0.993 | 1.06 | 1.1 | 1.04 | 0.492 | 0.878 | 0.905 | 1.06 | 1.05 | 0.439 | 0.208 | 0.171 | 0.25 |
| NCI-H838 | 0.448 | 0.313 | 0.394 | 0.438 | 0.415 | 0.908 | 0.856 | 0.903 | 0.899 | 0.878 | 0.484 | 0.49 | 0.541 | 0.572 | 0.582 | 0.362 | 0.192 | 0.182 | 0.28 |
